In patent US20260356856A1, “KRAS G12S AND G12C INHIBITORS” (MIRATI THERAPEUTICS, INC., priority 2023, published 2026):

Key:
[1] = target: T1, KRas-mediated phosphorylation of ERK in H358 cells (Homo sapiens, UniProt P01116, G12C); test: Inhibition of KRas-mediated phosphorylation of ERK (HTRF), H358 cells; type: cell-based; conditions: HTRF pERK, 3 h incubation
T1 construct: pERK HTRF read-out

[2] = target: T2, KRas-mediated phosphorylation of ERK in A549 cells (Homo sapiens, UniProt P01116, G12S); test: Inhibition of KRas-mediated phosphorylation of ERK (HTRF), A549 cells; type: cell-based; conditions: HTRF pERK, 3 h incubation
T2 construct: pERK HTRF read-out
T2 sequence (P01116 1-188 isoform P01116-2 G12S): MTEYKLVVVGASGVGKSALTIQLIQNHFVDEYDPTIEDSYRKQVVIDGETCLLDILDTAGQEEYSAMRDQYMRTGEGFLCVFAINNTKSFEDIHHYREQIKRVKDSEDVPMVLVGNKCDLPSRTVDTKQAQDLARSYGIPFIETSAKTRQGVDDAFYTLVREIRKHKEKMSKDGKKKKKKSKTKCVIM

KRas G12C = target: T3, KRas G12C (Homo sapiens, UniProt P01116, G12C); test: KRas binding assay, TR-FRET displacement of Cy5 labelled tracer; conditions: 60-minute incubation at room temperature, 1% DMSO, pH 7.5
T3 construct: Biotinylated KRas (corresponding to amino acids 1-169, produced at Accelegan Inc.); biotin (biotinylated); purchased Accelegan Inc
T3 sequence (P01116 1-169 isoform P01116-2 G12C): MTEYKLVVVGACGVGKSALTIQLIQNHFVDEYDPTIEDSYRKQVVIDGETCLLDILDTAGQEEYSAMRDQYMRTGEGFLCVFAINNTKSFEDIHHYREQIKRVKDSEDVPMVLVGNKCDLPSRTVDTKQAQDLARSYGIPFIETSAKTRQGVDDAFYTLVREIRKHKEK
Outline: (§1)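 Room-temperature incubation (60 min) of compound with biotinylated KRas 1-169, tracer and Tb-streptavidin preceded the TR-FRET read. Final DMSO was 1%; buffer pH 7.5. Percent-of-control values went into a 4-parameter equation to give IC50.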

KRas G12S = target: T4, KRas G12S (Homo sapiens, UniProt P01116, G12S); test: as above; conditions: 60-minute incubation at room temperature, 1% DMSO, pH 7.5
T4 construct: Biotinylated KRas (corresponding to amino acids 1-169, produced at Accelegan Inc.); biotin (biotinylated); purchased Accelegan Inc
T4 sequence (P01116 1-169 isoform P01116-2 G12S): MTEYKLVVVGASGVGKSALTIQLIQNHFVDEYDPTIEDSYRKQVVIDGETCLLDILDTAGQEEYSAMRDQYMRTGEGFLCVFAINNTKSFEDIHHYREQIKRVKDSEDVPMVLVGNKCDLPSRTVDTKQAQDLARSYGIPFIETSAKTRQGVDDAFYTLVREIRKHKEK
Outline: as §1

KRas WT = target: T5, KRas WT (Homo sapiens, UniProt P01116); test: as above; conditions: 60-minute incubation at room temperature, 1% DMSO, pH 7.5
T5 construct: Biotinylated KRas (corresponding to amino acids 1-169, produced at Accelegan Inc.); biotin (biotinylated); purchased Accelegan Inc
T5 sequence (P01116 1-169 isoform P01116-2): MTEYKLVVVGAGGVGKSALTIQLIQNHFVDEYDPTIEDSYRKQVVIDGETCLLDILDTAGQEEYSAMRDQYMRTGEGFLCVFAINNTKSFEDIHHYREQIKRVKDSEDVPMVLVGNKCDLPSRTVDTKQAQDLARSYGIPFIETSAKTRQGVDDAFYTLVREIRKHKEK
Outline: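 KRas aa 1-169, biotinylated; Tb-streptavidin donor; 1% DMSO final. Buffer: HEPES 50 mM (pH 7.5), MgCl2 5 mM, DTT 1 mM, Tween-20 0.005%. 60 min, RT. IC50 from 4-parameter fit of POC.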

[3] = target: T6, KRas-mediated phosphorylation of ERK in MKN1 cells (Homo sapiens, UniProt P01116); test: Inhibition of KRas-mediated phosphorylation of ERK (HTRF), MKN1 cells; type: cell-based; conditions: MKN1 cells (KRas WT); HTRF pERK; 3 h incubation
T6 construct: pERK HTRF read-out
T6 sequence (P01116 1-188 isoform P01116-2): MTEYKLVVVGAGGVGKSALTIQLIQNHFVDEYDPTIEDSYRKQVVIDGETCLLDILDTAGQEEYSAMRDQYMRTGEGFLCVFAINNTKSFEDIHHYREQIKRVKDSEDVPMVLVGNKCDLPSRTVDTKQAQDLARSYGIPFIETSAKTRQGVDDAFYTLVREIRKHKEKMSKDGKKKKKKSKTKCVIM
Experimental: Inhibition of KRas Phosphorylation of ERK (HTRF) by Exemplary Compounds of Formula (Ia) or (Ib)
Cisbio HTRF Advanced pERK Assay Catalog #64AERPEH • Cells: MKN1, PSN1 • Procedure: • 1. Day 1: Seed 6,000 cells/well −25 μl/well in 384-well white solid bottom plate; RPM1_10% FBS. Incubate overnight at 37 °C/5% CO2. • 2.

T1 sequence (P01116 1-188 isoform P01116-2 G12C): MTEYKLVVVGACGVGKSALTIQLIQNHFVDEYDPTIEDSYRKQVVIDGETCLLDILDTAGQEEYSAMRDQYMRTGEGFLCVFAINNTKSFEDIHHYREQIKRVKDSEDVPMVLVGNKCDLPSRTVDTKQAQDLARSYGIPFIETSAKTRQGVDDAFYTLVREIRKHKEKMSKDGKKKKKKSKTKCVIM

Row | SMILES | IC50 [1] | IC50 [2] | IC50 (KRas G12C) | IC50 (KRas G12S) | IC50 (KRas WT) | IC50 [3]
1 | CCc1c(F)ccc2cc(O)cc(-c3ncc4c(N5C[C@@H](C)N(C(=O)n6ccc(C)n6)[C@@H](C)C5)nc(OC[C@@]56CCCN5C[C@H](F)C6)nc4c3F)c12 [Example 81, ((2S,6R)-4-(7-(8-ethyl-7-fluoro-3-hydroxynaphthalen-1-yl)-8-fluoro-2-(((2R,7aS)-2-fluorotetrahydro-1H-pyrrolizin-7a(5H)-yl)methoxy)pyrido[4,3-d]pyrimidin-4-yl)-2,6-dimethylpiperazin-1-yl)(3-methyl-1H-pyrazol-1-yl)methanone] | 2160 nM | 3770 nM | 165 nM | 93 nM | 32 nM | 192 nM
2 | CCc1c(F)ccc2cc(O)cc(-c3ncc4c(N5CCN(C(=O)n6ccc(C)n6)C(C)C5)nc(OC[C@@]56CCCN5C[C@H](F)C6)nc4c3F)c12 (stereo partly drawn) [Example 82, (4-(7-(8-ethyl-7-fluoro-3-hydroxynaphthalen-1-yl)-8-fluoro-2-(((2R,7aS)-2-fluorotetrahydro-1H-pyrrolizin-7a(5H)-yl)methoxy)pyrido[4,3-d]pyrimidin-4-yl)-2-methylpiperazin-1-yl)(3-methyl-1H-pyrazol-1-yl)methanone] | 499 nM | 3410 nM | 34 nM | 28 nM | 23 nM | 179 nM
3 | CCc1c(F)ccc2cc(O)cc(-c3ncc4c(N5CCC(C)(C(=O)n6ccc(C)n6)CC5)nc(OC[C@@]56CCCN5C[C@H](F)C6)nc4c3F)c12 [Example 83, (1-(7-(8-ethyl-7-fluoro-3-hydroxynaphthalen-1-yl)-8-fluoro-2-(((2R,7aS)-2-fluorotetrahydro-1H-pyrrolizin-7a(5H)-yl)methoxy)pyrido[4,3-d]pyrimidin-4-yl)-4-methylpiperidin-4-yl)(3-methyl-1H-pyrazol-1-yl)methanone] | 1410 nM | 1170 nM | 107 nM | 402 nM | 790 nM | 2990 nM
4 | CCc1c(F)ccc2cc(O)cc(-c3ncc4c(N5CC(CC(=O)n6ccc(C)n6)C5)nc(OC[C@@]56CCCN5C[C@H](F)C6)nc4c3F)c12 [Example 84, 2-(1-(7-(8-ethyl-7-fluoro-3-hydroxynaphthalen-1-yl)-8-fluoro-2-(((2R,7aS)-2-fluorotetrahydro-1H-pyrrolizin-7a(5H)-yl)methoxy)pyrido[4,3-d]pyrimidin-4-yl)azetidin-3-yl)-1-(3-methyl-1H-pyrazol-1-yl) ethan-1-one] | 7600 nM | 55 nM | 53 nM | 7 nM | 154 nM | 6390 nM
5 | CCc1c(F)ccc2cc(O)cc(-c3ncc4c(N5CC[C@H](C(=O)n6ccc(C)n6)[C@H](C)C5)nc(OC[C@@]56CCCN5C[C@H](F)C6)nc4c3F)c12 [Example 85, ((3S,4S)-1-(7-(8-ethyl-7-fluoro-3-hydroxynaphthalen-1-yl)-8-fluoro-2-(((2R,7aS)-2-fluorotetrahydro-1H-pyrrolizin-7a(5H)-yl)methoxy)pyrido[4,3-d]pyrimidin-4-yl)-3-methylpiperidin-4-yl)(3-methyl-1H-pyrazol-1-yl)methanone] | 458 nM | 883 nM | 28 nM | 17 nM | 8 nM | 48 nM
6 | CCc1c(F)ccc2cc(O)cc(-c3ncc4c(N(C)CCCC(=O)n5ccc(C)n5)nc(OC[C@@]56CCCN5C[C@H](F)C6)nc4c3F)c12 [Example 110, 4-((7-(8-ethyl-7-fluoro-3-hydroxynaphthalen-1-yl)-8-fluoro-2-(((2R,7aS)-2-fluorotetrahydro-1H-pyrrolizin-7a(5H)-yl)methoxy)pyrido[4,3-d]pyrimidin-4-yl)(methyl)amino)-1-(3-methyl-1H-pyrazol-1-yl) butan-1-one] | 91 nM | 12 nM | < 2 nM | < 2 nM | 58 nM | 1320 nM
7 | CCc1c(F)ccc2cc(O)cc(-c3ncc4c(N(C)CCC(=O)n5ccc(C)n5)nc(OC[C@@]56CCCN5C[C@H](F)C6)nc4c3F)c12 [Example 121, 3-((7-(8-ethyl-7-fluoro-3-hydroxynaphthalen-1-yl)-8-fluoro-2-(((2R,7aS)-2-fluorotetrahydro-1H-pyrrolizin-7a(5H)-yl)methoxy)pyrido[4,3-d]pyrimidin-4-yl)(methyl)amino)-1-(3-methyl-1H-pyrazol-1-yl) propan-1-one] | 382 nM | 243 nM | 16 nM | 16 nM | 30 nM | 875 nM
8 | CCc1c(F)ccc2cc(O)cc(-c3ncc4c(N5CCN(C(=O)n6ccc(C)n6)C(CF)C5)nc(OC[C@@]56CCCN5C[C@H](F)C6)nc4c3F)c12 (stereo partly drawn) [Example 123, (4-(7-(8-ethyl-7-fluoro-3-hydroxynaphthalen-1-yl)-8-fluoro-2-(((2R,7aS)-2-fluorotetrahydro-1H-pyrrolizin-7a(5H)-yl)methoxy)pyrido[4,3-d]pyrimidin-4-yl)-2-(fluoromethyl)piperazin-1-yl)(3-methyl-1H-pyrazol-1-yl)methanone] | 264 nM | 2740 nM | 42 nM | 68 nM | 30 nM | 219 nM
9 | CCc1c(F)ccc2cc(O)cc(-c3ncc4c(N5CCCCC(C(=O)n6ccc(C)n6)CC5)nc(OC[C@@]56CCCN5C/C(=C\F)C6)nc4c3F)c12 (stereo partly drawn) [Example 124, (1-(7-(8-ethyl-7-fluoro-3-hydroxynaphthalen-1-yl)-8-fluoro-2-(((S,Z)-2-(fluoromethylene)tetrahydro-1H-pyrrolizin-7a(5H)-yl)methoxy)pyrido[4,3-d]pyrimidin-4-yl)azocan-4-yl)(3-methyl-1H-pyrazol-1-yl)methanone] | 25 nM | 7 nM | 4 nM | 3 nM | 103 nM | 93 nM

Second part, the compound after the results:

Row | IC50 [1] | IC50 [2] | IC50 (KRas G12C) | IC50 (KRas G12S) | IC50 (KRas WT) | IC50 [3] | SMILES
10 | 635 nM | 7190 nM | 224 nM | 407 nM | 193 nM | 514 nM | CCc1c(F)ccc2cc(O)cc(-c3ncc4c(N5CCN(C(=O)n6ccc(C)n6)C(C(F)(F)F)C5)nc(OC[C@@]56CCCN5C[C@H](F)C6)nc4c3F)c12 (stereo partly drawn) [Example 127, (4-(7-(8-ethyl-7-fluoro-3-hydroxynaphthalen-1-yl)-8-fluoro-2-(((2R,7aS)-2-fluorotetrahydro-1H-pyrrolizin-7a(5H)-yl)methoxy)pyrido[4,3-d]pyrimidin-4-yl)-2-(trifluoromethyl)piperazin-1-yl)(3-methyl-1H-pyrazol-1-yl)methanone]
11 | 1540 nM | 57 nM | 93 nM | 11 nM | 1190 nM | 7430 nM | CCc1c(F)ccc2cc(O)cc(-c3ncc4c(N5C[C@H]6C[C@@H](C(=O)n7ccc(C)n7)C[C@H]6C5)nc(OC[C@@]56CCCN5C[C@H](F)C6)nc4c3F)c12 [Example 128, ((3aR,5S,6aS)-2-(7-(8-ethyl-7-fluoro-3-hydroxynaphthalen-1-yl)-8-fluoro-2-(((2R,7aS)-2-fluorotetrahydro-1H-pyrrolizin-7a(5H)-yl)methoxy)pyrido[4,3-d]pyrimidin-4-yl)octahydrocyclopenta[c]pyrrol-5-yl)(3-methyl-1H-pyrazol-1-yl)methanone]
12 | 26 nM | 4 nM | 7 nM | 5 nM | 8 nM | 139 nM | N#Cc1c(N)sc2c(F)ccc(-c3c(Cl)cc4c(N5CCC(C(=O)n6cccn6)CC5)nc(OC[C@@]56CCCN5C[C@H](F)C6)nc4c3F)c12 [Example 129, 4-(4-(4-(1H-pyrazole-1-carbonyl)piperidin-1-yl)-6-chloro-8-fluoro-2-(((2R,7aS)-2-fluorotetrahydro-1H-pyrrolizin-7a(5H)-yl)methoxy)quinazolin-7-yl)-2-amino-7-fluorobenzo[b]thiophene-3-carbonitrile]
13 | 7 nM | 7 nM | 11 nM | 8 nM | 10 nM | 200 nM | Cc1ccn(C(=O)C2CCCN(c3nc(OC[C@@]45CCCN4C[C@H](F)C5)nc4c(F)c(-c5ccc(F)c6sc(N)c(C#N)c56)c(Cl)cc34)CC2)n1 (stereo partly drawn) [Example 130, 2-amino-4-(6-chloro-8-fluoro-2-(((2R,7aS)-2-fluorotetrahydro-1H-pyrrolizin-7a(5H)-yl)methoxy)-4-(4-(3-methyl-1H-pyrazole-1-carbonyl)azepan-1-yl)quinazolin-7-yl)-7-fluorobenzo[b]thiophene-3-carbonitrile]
